According to ChEMBL document CHEMBL1201862, “PubChem BioAssay data set” (2004):
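48-hour exposure; five concentrations; linearly interpolated endpoints. GI50 marks 50% less growth.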 Active and inactive are the calls of the source. Cut-off read from the data, not from the text of the source: active = GI50 up to about 1.1 µM and inactive = higher.

How the values were obtained:
Assay in all cases: growth of human tumour cells (NCI), 48 h
HCT-116 = test system: HCT-116
HT-29 = test system: HT-29
SF-268 = test system: SF-268
SK-MEL-2 = test system: SK-MEL-2
HCT-15 = test system: HCT-15
PC-3 = test system: PC-3
KM12 = test system: KM12
NCI/ADR-RES = test system: NCI/ADR-RES
MDA-N = test system: MDA-N
CAKI-1 = test system: CAKI-1
CCRF-CEM = test system: CCRF-CEM
SK-OV-3 = test system: SK-OV-3
SN12C = test system: SN12C
DU-145 = test system: DU-145
NCI-H23 = test system: NCI-H23
Hs-578T = test system: Hs-578T
TK-10 = test system: TK-10
SF-295 = test system: SF-295
A549 = test system: A549
LOX IMVI = test system: LOX IMVI

| Structure (SMILES) | GI50 (HCT-116) | GI50 (HT-29) | GI50 (SF-268) | GI50 (SK-MEL-2) | GI50 (HCT-15) [µM] | GI50 (PC-3) | GI50 (KM12) | GI50 (NCI/ADR-RES) | GI50 (MDA-N) | GI50 (CAKI-1) | GI50 (CCRF-CEM) | GI50 (SK-OV-3) | GI50 (SN12C) | GI50 (DU-145) | GI50 (NCI-H23) | GI50 (Hs-578T) | GI50 (TK-10) | GI50 (SF-295) | GI50 (A549) | GI50 (LOX IMVI) |
| --- | --- | --- | --- | --- | --- | --- | --- | --- | --- | --- | --- | --- | --- | --- | --- | --- | --- | --- | --- | --- |
| O=C(NN=C1CCCCC1)Nc1ccccc1Cl | 48.8 µM (inactive) | 36.3 µM (inactive) | 41.1 µM (inactive) | 28.6 µM (inactive) | 39.6 | > 100 µM (inactive) | 38.3 µM (inactive) | 24.1 µM (inactive) | 18.1 µM (inactive) | 92.7 µM (inactive) | 42 µM (inactive) | 55.6 µM (inactive) | 57.5 µM (inactive) | 86.1 µM (inactive) | 57.8 µM (inactive) | 32 µM (inactive) | > 100 µM (inactive) | 33.3 µM (inactive) | 81.7 µM (inactive) | 53.7 µM (inactive) |
| COC(=O)C1=CS/C(=C2\S[C@@H]3[C@H](S2)[C@H]2C=C[C@@H]3C2)S1 | 8.09 µM (inactive) | 13.1 µM (inactive) | 38.7 µM (inactive) | 32.5 µM (inactive) | 17.3 | 51.6 µM (inactive) | > 100 µM (inactive) | 9.66 µM (inactive) | 3.49 µM (inactive) | 7.14 µM (inactive) | 17.6 µM (inactive) | 47 µM (inactive) | > 100 µM (inactive) | > 100 µM (inactive) | > 100 µM (inactive) | 81.3 µM (inactive) | > 100 µM (inactive) | 2.96 µM (inactive) | 30.8 µM (inactive) | 13.1 µM (inactive) |
| c1ccc2c(c1)c1c(n2CCOCCN2CCCC2)CCCC1 | 17.1 µM (inactive) | 20 µM (inactive) | 29 µM (inactive) | 16.4 µM (inactive) | 17 | 18.6 µM (inactive) | > 10 µM (inactive) | 19 µM (inactive) | 19.4 µM (inactive) | 27.2 µM (inactive) | 20.9 µM (inactive) | 31.3 µM (inactive) | 17.5 µM (inactive) | 30.3 µM (inactive) | 22.6 µM (inactive) | 14.9 µM (inactive) | 19.5 µM (inactive) | 37.2 µM (inactive) | 28.1 µM (inactive) | 18.5 µM (inactive) |
| CC1=NN=C(C)C1/N=N/c1ccc2[nH]c(C)nc2c1 | 10.9 µM (inactive) | 16 µM (inactive) | 10.9 µM (inactive) | 8.07 µM (inactive) | 6.68 | 27.7 µM (inactive) | 35.4 µM (inactive) | 38.4 µM (inactive) | 19.8 µM (inactive) | 5.02 µM (inactive) | 32.3 µM (inactive) | 5.27 µM (inactive) | > 52 µM (inactive) | 9.23 µM (inactive) | 37.3 µM (inactive) | 5.36 µM (inactive) | 14.1 µM (inactive) | 17.9 µM (inactive) | 27.4 µM (inactive) | 9.1 µM (inactive) |
| C[C@]12CC[C@H]3[C@@H](CC=C4C[C@@H](O)CC[C@@]43C)[C@@H]1CC[C@@H]2N(CCO)CCO | 26.9 µM (inactive) | 29 µM (inactive) | 36 µM (inactive) | 76.2 µM (inactive) | 71.4 | 50.9 µM (inactive) | 54.5 µM (inactive) | > 100 µM (inactive) | 45.9 µM (inactive) | 45.3 µM (inactive) | 46.2 µM (inactive) | 23.3 µM (inactive) | 33 µM (inactive) | 36.6 µM (inactive) | > 100 µM (inactive) | 45.2 µM (inactive) | 42.3 µM (inactive) | 57.5 µM (inactive) | 42 µM (inactive) | 40.7 µM (inactive) |
| Oc1ncnc2c1nnn2CCCCCCCCCCCCn1nnc2c(O)ncnc21 | 18.2 µM (inactive) | > 100 µM (inactive) | 37.7 µM (inactive) | 23.4 µM (inactive) | > 100 | > 100 µM (inactive) | > 100 µM (inactive) | > 100 µM (inactive) | > 100 µM (inactive) | > 100 µM (inactive) | > 100 µM (inactive) | 17.7 µM (inactive) | > 85.5 µM (inactive) | > 100 µM (inactive) | 5.68 µM (inactive) | 18.9 µM (inactive) | 24.4 µM (inactive) | 14.5 µM (inactive) | 36.9 µM (inactive) | 45.8 µM (inactive) |
| C=C(C)[C@H]1CC(=O)/C(C)=C\CC/C(C)=C/CC[C@@]2(C)O[C@@H]2C1 | 16 µM (inactive) | 16.3 µM (inactive) | 23 µM (inactive) | 35.8 µM (inactive) | 33.9 | 24.8 µM (inactive) | 20.8 µM (inactive) | 21.8 µM (inactive) | 35.2 µM (inactive) | 1.99 µM (inactive) | 35.1 µM (inactive) | 24.4 µM (inactive) | 20.8 µM (inactive) | 17.7 µM (inactive) | 22.3 µM (inactive) | 30.9 µM (inactive) | 31.9 µM (inactive) | 34.3 µM (inactive) | 15.8 µM (inactive) | 10.9 µM (inactive) |
| CC1=NC(=Cc2cc(Br)cc(Br)c2)C(=O)N1n1c(-c2ccccc2)nc2ccccc2c1=O | > 100 µM (inactive) | > 100 µM (inactive) | > 100 µM (inactive) | > 100 µM (inactive) | > 100 | > 100 µM (inactive) | > 100 µM (inactive) | > 100 µM (inactive) | > 100 µM (inactive) | > 100 µM (inactive) | > 100 µM (inactive) | > 100 µM (inactive) | > 100 µM (inactive) | > 100 µM (inactive) | > 100 µM (inactive) | > 100 µM (inactive) | > 100 µM (inactive) | > 100 µM (inactive) | > 100 µM (inactive) | > 100 µM (inactive) |
| OC12CC3c4ccccc4NC3C3Oc4cccc5c4C31CCN(CC1CC1)C2C5 (stereo not given) | 16.8 µM (inactive) | 15.5 µM (inactive) | 18.2 µM (inactive) | 19.5 µM (inactive) | 17.9 | 16.7 µM (inactive) | 18.8 µM (inactive) | 21.2 µM (inactive) | 17.9 µM (inactive) | 17.6 µM (inactive) | 23.4 µM (inactive) | 18.7 µM (inactive) | 17.2 µM (inactive) | 17.1 µM (inactive) | 13 µM (inactive) | 23.9 µM (inactive) | 17.3 µM (inactive) | 30.9 µM (inactive) | 18.4 µM (inactive) | 15.9 µM (inactive) |
| O=C(O)c1cc2ccccc2c(O)c1O | 16.8 µM (inactive) | 23.2 µM (inactive) | 17.2 µM (inactive) | 1.03 µM (active) | 19.7 | 12.8 µM (inactive) | 16.3 µM (inactive) | 19.4 µM (inactive) | 2.14 µM (inactive) | 17.3 µM (inactive) | 5.75 µM (inactive) | 14.8 µM (inactive) | 16.6 µM (inactive) | 18.3 µM (inactive) | 7.29 µM (inactive) | 8.13 µM (inactive) | 21.9 µM (inactive) | 15.3 µM (inactive) | 19.8 µM (inactive) | 3.52 µM (inactive) |
| COc1ccc(/C=C2\CCC(C)C3=C2NC(=S)NC3c2ccc(OC)c(OC)c2)cc1OC (stereo not given) | 15.3 µM (inactive) | 26 µM (inactive) | 25.5 µM (inactive) | 26.5 µM (inactive) | 9.95 | 10.7 µM (inactive) | 12 µM (inactive) | 27.5 µM (inactive) | 3.83 µM (inactive) | 15.6 µM (inactive) | 8.95 µM (inactive) | 29.9 µM (inactive) | 24.9 µM (inactive) | 27.2 µM (inactive) | > 10 µM (inactive) | 30.8 µM (inactive) | 19.7 µM (inactive) | 12 µM (inactive) | 16.9 µM (inactive) | 17.4 µM (inactive) |
| Nc1[nH]c(=S)[nH]c(=O)c1/N=N/c1c(Br)cc(S(N)(=O)=O)cc1Br | > 100 µM (inactive) | > 100 µM (inactive) | > 100 µM (inactive) | > 100 µM (inactive) | > 100 | > 100 µM (inactive) | > 100 µM (inactive) | > 100 µM (inactive) | > 100 µM (inactive) | > 100 µM (inactive) | > 100 µM (inactive) | > 100 µM (inactive) | > 100 µM (inactive) | > 100 µM (inactive) | > 100 µM (inactive) | > 100 µM (inactive) | > 100 µM (inactive) | > 100 µM (inactive) | > 100 µM (inactive) | > 100 µM (inactive) |
| Cc1cccc(C2ON=C(c3ccccc3)N2C23CC4CC(CC(C4)C2)C3)c1 (stereo not given) | > 10 µM (inactive) | > 10 µM (inactive) | > 10 µM (inactive) | > 10 µM (inactive) | > 10 | > 10 µM (inactive) | > 10 µM (inactive) | > 10 µM (inactive) | > 10 µM (inactive) | > 10 µM (inactive) | > 10 µM (inactive) | > 10 µM (inactive) | > 10 µM (inactive) | > 10 µM (inactive) | > 10 µM (inactive) | > 10 µM (inactive) | > 10 µM (inactive) | > 10 µM (inactive) | > 10 µM (inactive) | > 10 µM (inactive) |
| COc1ccc(CNC(=O)[C@H](Cc2ccc(O)cn2)NC(C)=O)cc1OC | > 100 µM (inactive) | > 100 µM (inactive) | > 90.6 µM (inactive) | > 100 µM (inactive) | > 100 | > 100 µM (inactive) | > 100 µM (inactive) | > 100 µM (inactive) | > 100 µM (inactive) | > 100 µM (inactive) | > 100 µM (inactive) | > 100 µM (inactive) | > 100 µM (inactive) | > 100 µM (inactive) | > 100 µM (inactive) | > 74.5 µM (inactive) | > 100 µM (inactive) | > 100 µM (inactive) | > 100 µM (inactive) | > 100 µM (inactive) |
